Converted amounts (≈) assume the structure as drawn.
Tests used:
Type in all cases: functional
Settings in all cases: time 16-18 hrs
Acinetobacter baumannii [1] = test: Antibacterial activity against Acinetobacter baumannii Bio 34235 after 16 to 18 hrs by broth microdilution method
Staphylococcus aureus [2] = test: Antibacterial activity against methicillin-resistant Staphylococcus aureus ATCC 43300 after 16 to 18 hrs by broth microdilution method
Staphylococcus aureus [3] = test: Antibacterial activity against methicillin-susceptible Staphylococcus aureus ATCC 13709 after 16 to 18 hrs by broth microdilution method
Escherichia coli = test: Antibacterial activity against Escherichia coli ATCC 25922 after 16 to 18 hrs by broth microdilution method
Acinetobacter baumannii [4] = test: Antibacterial activity against drug-resistant Acinetobacter baumannii Bio 53272 after 16 to 18 hrs by broth microdilution method
Staphylococcus aureus [5] = test: Antibacterial activity against methicillin-susceptible Staphylococcus aureus ATCC 29213 after 16 to 18 hrs by broth microdilution method
Staphylococcus aureus [6] = test: Antibacterial activity against methicillin-susceptible Staphylococcus aureus ATCC 25923 after 16 to 18 hrs by broth microdilution method
Staphylococcus aureus [7] = test: Antibacterial activity against methicillin-resistant Staphylococcus aureus ATCC 33591 after 16 to 18 hrs by broth microdilution method
[8] = test system: Staphylococcus epidermidis; test: Antibacterial activity against Staphylococcus epidermidis after 16 to 18 hrs by broth microdilution method
Klebsiella pneumoniae = test: Antibacterial activity against Klebsiella pneumoniae CICC 21611 after 16 to 18 hrs by broth microdilution method
Staphylococcus aureus [9] = test: Antibacterial activity against methicillin-resistant Staphylococcus aureus Bio-090770 after 16 to 18 hrs by broth microdilution method

SMILES | MIC (Acinetobacter baumannii [1]) [µg/mL] | MIC (Staphylococcus aureus [2]) [µg/mL] | MIC (Staphylococcus aureus [3]) [µg/mL] | MIC (Escherichia coli) [µg/mL] | MIC (Acinetobacter baumannii [4]) [µg/mL] | MIC (Staphylococcus aureus [5]) [µg/mL] | MIC (Staphylococcus aureus [6]) [µg/mL] | MIC (Staphylococcus aureus [7]) [µg/mL] | MIC [8] [µg/mL] | MIC (Klebsiella pneumoniae) [µg/mL] | MIC (Staphylococcus aureus [9]) [µg/mL]
CCCC[C@H](CN(O)C=O)C(=O)N1CCC[C@H]1c1nnc(-c2ccnc(C(F)(F)F)c2)s1 | 64 (≈ 136 µM) | 0.25 (≈ 0.53 µM) | 0.5 (≈ 1.06 µM) | 128 (≈ 271 µM) | 16 (≈ 33.9 µM) | 0.5 (≈ 1.06 µM) | 0.5 (≈ 1.06 µM) | 0.25 (≈ 0.53 µM) | 1 (≈ 2.12 µM) | 64 (≈ 136 µM) | 1 (≈ 2.12 µM)
CCCC[C@H](CN(O)C=O)C(=O)N1CCC[C@H]1c1nnc(-c2ccc(F)cc2C(F)(F)F)s1 | > 16 | 2 (≈ 4.09 µM) | 2 (≈ 4.09 µM) | > 16 | > 16 | 2 (≈ 4.09 µM) | 2 (≈ 4.09 µM) | 0.5 (≈ 1.02 µM) | 4 (≈ 8.19 µM) | > 16 | 4 (≈ 8.19 µM)
CCCC[C@H](CN(O)C=O)C(=O)N1CCC[C@H]1c1nnc(-c2cscn2)s1 | 64 (≈ 156 µM) | 0.5 (≈ 1.22 µM) | 1 (≈ 2.44 µM) | 64 (≈ 156 µM) | 16 (≈ 39.1 µM) | 1 (≈ 2.44 µM) | 1 (≈ 2.44 µM) | 0.5 (≈ 1.22 µM) | 0.25 (≈ 0.61 µM) | 32 (≈ 78.1 µM) | 2 (≈ 4.88 µM)
CCCC[C@H](CN(O)C=O)C(=O)N1CCC[C@H]1c1nnc(-c2sccc2F)s1 | 16 (≈ 37.5 µM) | 0.5 (≈ 1.17 µM) | 0.5 (≈ 1.17 µM) | 64 (≈ 150 µM) | 16 (≈ 37.5 µM) | 0.5 (≈ 1.17 µM) | 0.5 (≈ 1.17 µM) | 0.5 (≈ 1.17 µM) | 1 (≈ 2.34 µM) | 16 (≈ 37.5 µM) | 2 (≈ 4.69 µM)
CCCC[C@H](CN(O)C=O)C(=O)N1CCC[C@H]1c1nnc(-c2ncccc2F)s1 | 16 (≈ 38 µM) | 0.25 (≈ 0.593 µM) | 1 (≈ 2.37 µM) | > 16 | 16 (≈ 38 µM) | 1 (≈ 2.37 µM) | 1 (≈ 2.37 µM) | 0.25 (≈ 0.593 µM) | 1 (≈ 2.37 µM) | > 16 | 2 (≈ 4.74 µM)
CCCC[C@H](CN(O)C=O)C(=O)N1CCC[C@H]1c1nnc(-c2ccc3[nH]ccc3c2)s1 | > 16 | 4 (≈ 9.06 µM) | 4 (≈ 9.06 µM) | > 16 | > 16 | 4 (≈ 9.06 µM) | 8 (≈ 18.1 µM) | 4 (≈ 9.06 µM) | 16 (≈ 36.2 µM) | > 16 | 8 (≈ 18.1 µM)
CCCC[C@H](CN(O)C=O)C(=O)N1CCC[C@H]1c1nnc(C2CCOC2)s1 (stereo partly drawn) | > 16 | 1 (≈ 2.52 µM) | 4 (≈ 10.1 µM) | > 16 | > 16 | 4 (≈ 10.1 µM) | 4 (≈ 10.1 µM) | 1 (≈ 2.52 µM) | 4 (≈ 10.1 µM) | > 16 | 4 (≈ 10.1 µM)
CCCC[C@H](CN(O)C=O)C(=O)N1CCC[C@H]1c1nnc(-c2ccc(F)cc2[N+](=O)[O-])s1 | > 16 | 2 (≈ 4.3 µM) | 2 (≈ 4.3 µM) | > 16 | > 16 | 2 (≈ 4.3 µM) | 4 (≈ 8.59 µM) | 1 (≈ 2.15 µM) | 4 (≈ 8.59 µM) | > 16 | 4 (≈ 8.59 µM)
CCCC[C@H](CN(O)C=O)C(=O)N1CCC[C@H]1c1nnc(-c2ccccc2F)s1 | 16 (≈ 38 µM) | 0.5 (≈ 1.19 µM) | 0.5 (≈ 1.19 µM) | 16 (≈ 38 µM) | 8 (≈ 19 µM) | 1 (≈ 2.38 µM) | 0.5 (≈ 1.19 µM) | 0.5 (≈ 1.19 µM) | 2 (≈ 4.76 µM) | > 16 | 1 (≈ 2.38 µM)
CCCC[C@H](CN(O)C=O)C(=O)N1CCC[C@H]1c1nnc(-c2ccc(F)cc2)s1 | > 16 | 1 (≈ 2.38 µM) | 1 (≈ 2.38 µM) | 16 (≈ 38 µM) | 8 (≈ 19 µM) | 2 (≈ 4.76 µM) | 2 (≈ 4.76 µM) | 0.25 (≈ 0.595 µM) | 2 (≈ 4.76 µM) | > 16 | 2 (≈ 4.76 µM)
CCCC[C@H](CN(O)C=O)C(=O)N1CCC[C@H]1c1nnc(-c2ccc(C(F)(F)F)cc2)s1 | > 16 | 2 (≈ 4.25 µM) | 4 (≈ 8.5 µM) | > 16 | 16 (≈ 34 µM) | 4 (≈ 8.5 µM) | 2 (≈ 4.25 µM) | 1 (≈ 2.13 µM) | 4 (≈ 8.5 µM) | > 16 | 2 (≈ 4.25 µM)
CCCC[C@H](CN(O)C=O)C(=O)N1CCC[C@H]1c1nnc(-c2cc(OC)c(OC)c(OC)c2)s1 | > 16 | 0.5 (≈ 1.02 µM) | 0.5 (≈ 1.02 µM) | > 16 | > 16 | 4 (≈ 8.12 µM) | 1 (≈ 2.03 µM) | 0.25 (≈ 0.508 µM) | 2 (≈ 4.06 µM) | > 16 | 1 (≈ 2.03 µM)
CCCC[C@H](CN(O)C=O)C(=O)N1CCC[C@H]1c1nnc(-c2ccc(F)cn2)s1 | 16 (≈ 38 µM) | 0.5 (≈ 1.19 µM) | 2 (≈ 4.74 µM) | 16 (≈ 38 µM) | 8 (≈ 19 µM) | 1 (≈ 2.37 µM) | 2 (≈ 4.74 µM) | 0.5 (≈ 1.19 µM) | 2 (≈ 4.74 µM) | > 16 | 2 (≈ 4.74 µM)

Reference: ChEMBL document CHEMBL6121016, “Design, Synthesis, and Biological Evaluation of 1,3,4-Thiadiazole Derivatives as Novel Potent Peptide Deformylase Inhibitors for Combating Drug-Resistant Gram-Positive and -Negative Bacteria” (J Med Chem, 2025)
